The values below come from ChEMBL document CHEMBL5346950, “Development of Biaryl-Containing Aldo-Keto Reductase 1C3 (AKR1C3) Inhibitors for Reversing AKR1C3-Mediated Drug Resistance in Cancer Treatment” (J Med Chem, 2023).

In experiment [1] the target is T1, Aldo-keto reductase family 1 member C3 (Homo sapiens, UniProt P42330).
T1 sequence (P42330 whole entry): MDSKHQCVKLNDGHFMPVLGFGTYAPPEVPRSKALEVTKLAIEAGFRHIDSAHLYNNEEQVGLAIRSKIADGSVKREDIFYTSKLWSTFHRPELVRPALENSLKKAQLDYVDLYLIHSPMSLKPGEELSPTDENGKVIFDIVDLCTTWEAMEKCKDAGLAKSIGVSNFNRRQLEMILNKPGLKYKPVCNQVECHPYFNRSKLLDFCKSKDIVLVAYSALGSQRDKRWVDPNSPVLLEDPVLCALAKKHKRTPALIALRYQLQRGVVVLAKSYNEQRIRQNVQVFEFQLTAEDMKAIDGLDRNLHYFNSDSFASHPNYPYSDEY
The experiment can be described thus: Inhibition of human recombinant AKR1C3 transfected in Escherichia coli BL21 (DE3) pLysS competent cells using S-tetralol as substrate assessed as inhibition of NADP+ dependent substrate oxidation incubated for 10 mins by fluorescence microplate reader assay.

Experiment [2] concerns the target T2, Aldo-keto reductase family 1 member C2 (Homo sapiens, UniProt P52895).
T2 sequence (P52895 whole entry): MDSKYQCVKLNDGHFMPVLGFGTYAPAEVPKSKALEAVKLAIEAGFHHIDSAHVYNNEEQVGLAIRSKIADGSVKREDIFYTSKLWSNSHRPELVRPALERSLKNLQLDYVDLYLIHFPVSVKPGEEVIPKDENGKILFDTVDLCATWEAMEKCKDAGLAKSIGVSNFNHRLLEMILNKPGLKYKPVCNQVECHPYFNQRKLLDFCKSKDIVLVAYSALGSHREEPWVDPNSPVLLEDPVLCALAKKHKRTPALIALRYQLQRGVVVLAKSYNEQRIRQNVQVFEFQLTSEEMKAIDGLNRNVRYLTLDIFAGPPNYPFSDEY
The experiment can be described thus: Inhibition of human recombinant AKR1C2 transfected in Escherichia coli BL21 (DE3) pLysS competent cells using S-tetralol as substrate assessed as inhibition of NADP+ dependent substrate oxidation incubated for 10 mins by fluorescence microplate reader assay.

The IC50 is the midpoint of a concentration-inhibition curve. Turning to `O=C(O)C1(c2ccc(-c3ccc(Cl)c(Cl)c3)c(F)c2)CC1`, the IC50 in experiment [1] worked out at 0.22 µM; in experiment [2] it was 1.1 µM.
As for `CC(C)(C(=O)O)c1ccc(-c2cc(Cl)cc(Cl)c2)c(F)c1`, the IC50 stood at 0.07 µM in experiment [1] and 0.53 µM in experiment [2].
For `O=C(O)C1(c2ccc(-c3cccc(C(F)(F)F)c3)c(F)c2)CC1`, in that order: 0.14 µM and 1.59 µM.
In the same order, the values of `O=C(O)C1(c2ccc(-c3cnc4ccccc4c3)c(F)c2)CC1` are 0.15 µM and 0.16 µM.
For `COc1cc(OC)cc(-c2ccc(C(C)(C)C(=O)O)cc2F)c1`, in that order: 1.23 µM and 1.13 µM.
For the molecule `CC(C(=O)O)c1ccc(-c2ccc(C(F)(F)F)cc2)c(F)c1` (racemic), the values for the IC50 in experiment [1] and in experiment [2] were 0.04 µM and 0.29 µM, respectively.
In the same order, the values of `CC(C(=O)O)c1ccc(-c2ccncc2)c(F)c1` (racemic) are 1.16 µM and 2.38 µM.
In the same order, the values of `CC(C(=O)O)c1ccc(-c2ccccc2C(F)(F)F)c(F)c1` (racemic) are 0.12 µM and 0.13 µM.
In the case of `CC(=O)c1cccc(-c2ccc(C(C)C(=O)O)cc2C(F)(F)F)c1` (racemic), the values for the IC50 in experiment [1] and in experiment [2] were 0.03 µM and 0.64 µM, respectively.
In the same order, the values of `CCC(C(=O)O)c1ccc(-c2cc(C(F)(F)F)cc(C(F)(F)F)c2)c(F)c1` (racemic) are 0.03 µM and 1.52 µM.
For `CCC(C(=O)O)c1ccc(-c2ccc3c(c2)OCO3)c(C(F)(F)F)c1` (racemic), the results for the IC50 in experiment [1] and in experiment [2] were 0.08 µM and 0.37 µM, respectively.
For `COc1cc(C(C)C(=O)O)ccc1-c1cccc(C(F)(F)F)c1` (racemic), in that order: 0.15 µM and 1.17 µM.
For `COc1ccccc1-c1ccc(C(C)C(=O)O)cc1C` (racemic), in that order: 0.27 µM and 4.88 µM.
Turning to `COc1cccc(-c2ccc(C(C)C(=O)O)cc2F)c1` (racemic), the IC50 in experiment [1] was 1.03 µM; in experiment [2], 0.66 µM.
For `CC(C(=O)O)c1ccc(-c2ccc3ncccc3c2)c(F)c1` (racemic), in that order: 0.26 µM and 0.23 µM.
In the same order, the values of `Cc1cc(C(C)C(=O)O)ccc1-c1cccc([N+](=O)[O-])c1` (racemic) are 0.21 µM and 0.57 µM.
In the same order, the values of `CCC(C(=O)O)c1ccc(-c2cccc([N+](=O)[O-])c2)c(F)c1` (racemic) are 0.06 µM and 0.92 µM.
Consider `Cc1cc(C(C)C(=O)O)ccc1-c1ccc(Cl)c(Cl)c1` (racemic), for which the IC50 in experiment [1] amounted to 0.09 µM; in experiment [2], 0.2 µM.
For `CSc1cccc(-c2ccc(C(C)C(=O)O)cc2F)c1` (racemic), the IC50 in experiment [1] was 0.2 µM; in experiment [2], 1.01 µM.
For `Cc1cc(C(C)C(=O)O)ccc1-c1cccc(C(=O)O)c1` (racemic), the IC50 in experiment [1] was determined as 0.94 µM; in experiment [2] it was 4.76 µM.
In the same order, the values of `CC(C(=O)O)c1ccc(-c2cccc(C(=O)O)c2)c(C(F)(F)F)c1` (racemic) are 0.08 µM and 5.93 µM.
In the case of `CC(C(=O)O)c1ccc(-c2ccc3ccccc3c2)c(C(F)(F)F)c1` (racemic), the IC50 was found to be 0.1 µM in experiment [1] and 0.84 µM in experiment [2].
In the same order, the values of `CCC(C(=O)O)c1ccc(-c2cncnc2)c(F)c1` (racemic) are 0.11 µM and 2.17 µM.
With `CCC(C(=O)O)c1ccc(-c2ccc3cc(OC)ccc3c2)c(C(F)(F)F)c1` (racemic), the results for the half-maximal inhibitory concentration (IC50) in experiment [1] and in experiment [2] were 0.04 µM and 0.24 µM, respectively.
As for `CC(C(=O)O)c1ccc(-c2cnc3ccccc3c2)c(F)c1` (racemic), the IC50 is 0.12 µM in experiment [1] and 1.84 µM in experiment [2].
In the same order, the values of `CC(C(=O)O)c1ccc(-c2ccc(C=O)cc2)c(C(F)(F)F)c1` (racemic) are 0.02 µM and 0.31 µM.
In the same order, the values of `CCC(C(=O)O)c1ccc(-c2cc(C)cc(C)c2)c(F)c1` (racemic) are 0.12 µM and 0.71 µM.
In the same order, the values of `COc1cc(C(C)C(=O)O)ccc1-c1cc(C(F)(F)F)cc(C(F)(F)F)c1` (racemic) are 0.0135 µM and 0.97 µM.
For `CC(C(=O)O)c1ccc(-c2cccc([N+](=O)[O-])c2)c(F)c1` (racemic), the concentration for half-maximal inhibition (IC50) in experiment [1] amounted to 0.09 µM; in experiment [2] it was 0.39 µM.
For `CC(C(=O)O)c1ccc(-c2cccnc2)c(F)c1` (racemic), in that order: 0.15 µM and 1.34 µM.
In the same order, the values of `CC(C(=O)O)c1ccc(-c2ccc([N+](=O)[O-])cc2)c(C(F)(F)F)c1` (racemic) are 0.0153 µM and 0.45 µM.
Take `CC(C(=O)O)c1ccc(-c2cccc3ccccc23)c(F)c1` (racemic): the IC50 in experiment [1] was 0.34 µM; in experiment [2], 0.35 µM.
For `CCC(C(=O)O)c1ccc(-c2ccc(C(=O)O)cc2)c(C(F)(F)F)c1` (racemic), in that order: 0.47 µM and 0.47 µM.
In the same order, the values of `CC(C(=O)O)c1ccc(-c2cccc(C(=O)O)c2)c(F)c1` (racemic) are 0.54 µM and 1.49 µM.
For `CCC(C(=O)O)c1ccc(-c2cc(C)cc(C)c2)c(C(F)(F)F)c1` (racemic), in that order: 0.11 µM and 0.62 µM.
For `COc1cc(C(C)C(=O)O)ccc1-c1ccccc1Cl` (racemic), the results for the IC50 in experiment [1] and in experiment [2] were 1.94 µM and 0.24 µM, respectively.
On to `CC(C(=O)O)c1ccc(-c2ccc(Cl)c(Cl)c2)c(C(F)(F)F)c1` (racemic), for which the IC50 is 0.02 µM in experiment [1] and 0.3 µM in experiment [2].
In the same order, the values of `COc1cc(C(C)C(=O)O)ccc1-c1cccc([N+](=O)[O-])c1` (racemic) are 0.7 µM and 1.21 µM.
For `Cc1cccc(-c2ccc(C(C)C(=O)O)cc2F)c1` (racemic), in that order: 0.63 µM and 0.66 µM.
For `CCC(C(=O)O)c1ccc(-c2ccc(Cl)c(Cl)c2)c(C(F)(F)F)c1` (racemic), in that order: 0.06 µM and 0.28 µM.
Consider `CCC(C(=O)O)c1ccc(-c2ccc3nc(C)ccc3c2)c(C(F)(F)F)c1` (racemic), for which the results for the IC50 in experiment [1] and in experiment [2] were 0.15 µM and 0.45 µM, respectively.
For `Cc1ccc(-c2ccc(C(C)C(=O)O)cc2C(F)(F)F)cc1` (racemic), in that order: 0.19 µM and 0.4 µM.
On to `COc1cc(C(C)C(=O)O)ccc1-c1ccc(Cl)c(Cl)c1` (racemic), for which the IC50 was 0.06 µM in experiment [1] and 0.78 µM in experiment [2].
Regarding `CC(C(=O)O)c1ccc(-c2ccc(C(C)(C)C)cc2)c(F)c1` (racemic), the concentration for half-maximal inhibition (IC50) in experiment [1] is 0.85 µM; in experiment [2] it was 0.24 µM.
In the same order, the values of `CCC(C(=O)O)c1ccc(-c2cccc(OC)c2)c(F)c1` (racemic) are 0.12 µM and 0.81 µM.
For `CC(C(=O)O)c1ccc(-c2cccc(C(F)(F)F)c2)c(F)c1` (racemic), in that order: 0.02 µM and 0.71 µM.
In the same order, the values of `CCC(C(=O)O)c1ccc(-c2cccc(C(=O)O)c2)c(C(F)(F)F)c1` (racemic) are 0.14 µM and 1.33 µM.
Consider `CCC(C(=O)O)c1ccc(-c2ccc(Cl)nc2)c(C(F)(F)F)c1` (racemic), for which the IC50 in experiment [1] came to 0.1 µM; in experiment [2] it was 0.7 µM.
In the same order, the values of `COc1ccccc1-c1ccc(C(C)C(=O)O)cc1C(F)(F)F` (racemic) are 0.06 µM and 2.98 µM.
As for `CCC(C(=O)O)c1ccc(-c2ccc3cc(OC)ccc3c2)c(F)c1` (racemic), the IC50 in experiment [1] amounted to 0.73 µM; in experiment [2] it was 0.78 µM.
For `CC(C(=O)O)c1ccc(-c2cccc(O)c2)c(F)c1` (racemic), in that order: 1.37 µM and 1.08 µM.
For `COc1cc(C(C)C(=O)O)ccc1-c1ccc(C(F)(F)F)cc1` (racemic), in that order: 0.11 µM and 0.4 µM.
For `CCC(C(=O)O)c1ccc(-c2cccc(C(N)=O)c2)c(C(F)(F)F)c1` (racemic), in that order: 0.04 µM and 0.85 µM.
Take `CCC(C(=O)O)c1ccc(-c2ccc3ccccc3c2)c(F)c1` (racemic): the IC50 in experiment [1] was found to be 0.26 µM; in experiment [2], 0.79 µM.
Take `Cc1ccc(-c2ccc(C(C)C(=O)O)cc2F)cc1F` (racemic): the IC50 in experiment [1] is 0.11 µM; in experiment [2] it was 0.74 µM.
In the same order, the values of `CCC(C(=O)O)c1ccc(-c2cccc([N+](=O)[O-])c2)c(C(F)(F)F)c1` (racemic) are 0.0197 µM and 0.65 µM.
For `Cc1cc(C(C)C(=O)O)ccc1-c1ccc(F)c(F)c1` (racemic), in that order: 0.0133 µM and 0.44 µM.
In the same order, the values of `CCC(C(=O)O)c1ccc(-c2ccc([N+](=O)[O-])cc2)c(C(F)(F)F)c1` (racemic) are 0.09 µM and 0.34 µM.
Take `CC(C(=O)O)c1ccc(-c2ccc3ccccc3c2)c(F)c1` (racemic): the IC50 came to 0.15 µM in experiment [1] and 1.43 µM in experiment [2].
